SMILES strings stand for the structures.

The values below come from ChEMBL document CHEMBL1909046, “DrugMatrix in vitro pharmacology data”.

Data set [1] can be described thus: DRUGMATRIX: Phosphodiesterase PDE3 enzyme inhibition (substrate: [3H]cAMP + cAMP). Type of data set: tissue-based, Homo sapiens. The conditions noted are these: platelet; Not Active = under 50% inhibition at 10 µM.
Data set [2] in a line: DRUGMATRIX: Purinergic P2X radioligand binding (ligand: [3H] alpha, beta-Methylene-ATP). It counts as cell membranes, Oryctolagus cuniculus, New Zealand albino, Urinary bladder, Membrane. The settings on record: Not Active = under 50% inhibition at 10 µM.
Data set [3] in a line: DRUGMATRIX: Phosphodiesterase PDE4 enzyme inhibition (substrate: [3H]cAMP + cAMP). The conditions noted are these: u-937; Not Active = under 50% inhibition at 10 µM.
The target in the next data set is Cytochrome P450 2E1 (Homo sapiens, UniProt P05181). The settings on record: bti-tn-5b1-4. Further: in other assays of this panel Not Active means under 50% inhibition at 10 µM.
For data set [4], the target named is Tyrosine-protein kinase Fyn (Homo sapiens, UniProt P06241). As to the kind of experiment: biochemical. It counts as cell-based, Insect cells.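 Further: enzymatic inhibition of Fyn kinase activity measured with Poly(Glu:Tyr) as the phosphorylation substrate; in other assays of this panel Not Active means under 50% inhibition at 10 µM.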
Data set [5] addresses Protein kinase C alpha type (Homo sapiens, UniProt P17252). Type of data set: cell-based. The settings on record: sf9.
Data set [6] is described as follows: DRUGMATRIX: GABAA, Chloride Channel, TBOB radioligand binding (ligand: [3H] TBOB). It counts as cell membranes, Rattus norvegicus, Wistar, Cerebral cortex, Membrane. The settings on record: Not Active = under 50% inhibition at 10 µM.
Data set [7] concerns the target Tyrosine-protein kinase Lck (Homo sapiens, UniProt P06239). Nature of the data set: DRUGMATRIX: Protein Tyrosine Kinase, LCK enzyme inhibition (substrate: Poly(Glu:Tyr)). Type of data set: cell-based, Insect cells. The conditions noted are these: insect cells; Not Active = under 50% inhibition at 10 µM.

Tyrosine-protein kinase Fyn, sequence (P06241 whole entry): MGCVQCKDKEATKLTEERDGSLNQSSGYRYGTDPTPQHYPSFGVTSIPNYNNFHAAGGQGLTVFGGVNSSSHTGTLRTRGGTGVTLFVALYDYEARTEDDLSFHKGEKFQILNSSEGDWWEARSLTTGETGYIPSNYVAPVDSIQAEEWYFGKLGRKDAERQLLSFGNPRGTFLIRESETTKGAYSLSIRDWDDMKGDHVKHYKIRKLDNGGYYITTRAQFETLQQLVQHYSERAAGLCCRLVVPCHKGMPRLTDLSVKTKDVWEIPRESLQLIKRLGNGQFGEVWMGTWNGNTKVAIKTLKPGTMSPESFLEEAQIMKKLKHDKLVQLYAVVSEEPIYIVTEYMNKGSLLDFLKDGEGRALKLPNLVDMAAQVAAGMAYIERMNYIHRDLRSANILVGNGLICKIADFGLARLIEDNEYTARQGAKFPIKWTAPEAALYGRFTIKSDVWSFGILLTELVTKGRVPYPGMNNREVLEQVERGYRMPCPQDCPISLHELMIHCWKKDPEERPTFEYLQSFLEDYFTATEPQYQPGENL
Cytochrome P450 2E1, sequence (P05181 whole entry): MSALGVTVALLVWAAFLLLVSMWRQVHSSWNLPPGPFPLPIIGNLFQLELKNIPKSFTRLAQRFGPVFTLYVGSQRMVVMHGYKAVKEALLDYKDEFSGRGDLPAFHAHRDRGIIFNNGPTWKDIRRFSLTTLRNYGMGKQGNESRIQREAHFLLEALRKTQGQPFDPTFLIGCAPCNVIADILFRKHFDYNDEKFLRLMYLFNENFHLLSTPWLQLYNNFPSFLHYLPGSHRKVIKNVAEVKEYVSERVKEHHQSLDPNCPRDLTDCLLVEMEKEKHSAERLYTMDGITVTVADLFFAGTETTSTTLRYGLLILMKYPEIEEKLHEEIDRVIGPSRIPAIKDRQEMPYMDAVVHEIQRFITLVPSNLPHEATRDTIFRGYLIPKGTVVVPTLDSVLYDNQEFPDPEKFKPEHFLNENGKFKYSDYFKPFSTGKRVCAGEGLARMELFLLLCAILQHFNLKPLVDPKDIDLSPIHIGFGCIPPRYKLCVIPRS
Tyrosine-protein kinase Lck, sequence (P06239 whole entry): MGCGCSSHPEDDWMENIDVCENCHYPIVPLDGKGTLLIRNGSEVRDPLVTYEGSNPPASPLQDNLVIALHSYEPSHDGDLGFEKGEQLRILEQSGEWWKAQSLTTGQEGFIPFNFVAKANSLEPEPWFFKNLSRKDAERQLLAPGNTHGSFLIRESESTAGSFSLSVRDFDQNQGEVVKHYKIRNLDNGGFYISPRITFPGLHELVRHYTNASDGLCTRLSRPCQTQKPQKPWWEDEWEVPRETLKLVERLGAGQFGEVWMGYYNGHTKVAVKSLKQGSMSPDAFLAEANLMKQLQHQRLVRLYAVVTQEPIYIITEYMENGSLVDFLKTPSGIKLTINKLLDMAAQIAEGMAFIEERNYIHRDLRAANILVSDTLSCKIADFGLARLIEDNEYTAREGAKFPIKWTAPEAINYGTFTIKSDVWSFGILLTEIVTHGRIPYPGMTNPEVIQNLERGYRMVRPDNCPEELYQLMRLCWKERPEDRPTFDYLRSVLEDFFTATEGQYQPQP

On to `CCOC(=O)N1CCC(=C2c3ccc(Cl)cc3CCc3cccnc32)CC1` [LORATADINE], for which the concentration for half-maximal inhibition (IC50) entry (in data set [1]; in data set [2]; in data set [3]; against Cytochrome P450 2E1; in data set [4] (insect cells); in data set [5]) was “Not Active” in each case. For the same compound, the IC50 entry in data set [6] and in data set [7] was “Not Active” each time. For the same compound, the Ki result (in data set [1]; in data set [2]; in data set [3]; at Cytochrome P450 2E1; in data set [6]) was “Not Active” throughout.
For the compound `Cn1ccnc1S` [METHIMAZOLE], the IC50 entry (in data set [1]; in data set [2]; in data set [3]; at Cytochrome P450 2E1; in data set [4] (insect cells); in data set [5]) was “Not Active” throughout. The IC50 entry in data set [6] and in data set [7] was “Not Active” in each case. The Ki entry (in data set [1]; in data set [2]; in data set [3]; on Cytochrome P450 2E1; in data set [6]) was “Not Active” each time.
As for `CC[C@@H](CO)NC(=O)[C@@H]1C=C2c3cccc4[nH]cc(c34)C[C@H]2N(C)C1` [METHYLERGONOVINE], the IC50 entry (in data set [1]; in data set [2]; in data set [3]; at Cytochrome P450 2E1; in data set [4] (insect cells); in data set [5]) was “Not Active” in each case. Further, the IC50 entry in data set [6] and in data set [7] was “Not Active” in each case. Also, the Ki result (in data set [1]; in data set [2]; in data set [3]; on Cytochrome P450 2E1; in data set [6]) was “Not Active” in each case.
As to `COc1nc(C)nc(Cl)c1NC1=NCCN1` [MOXONIDINE], the IC50 entry (in data set [1]; in data set [2]; in data set [3]; at Cytochrome P450 2E1; in data set [4] (insect cells); in data set [5]) was “Not Active” in each case. For the same compound, the IC50 entry in data set [6] and in data set [7] was “Not Active” in each case. For the same compound, the Ki result (in data set [1]; in data set [2]; in data set [3]; at Cytochrome P450 2E1; in data set [6]) was “Not Active” in each case.
`COc1c(C)c2c(c(O)c1C/C=C(\C)CCC(=O)O)C(=O)OC2` [MYCOPHENOLIC ACID]: the IC50 result (in data set [1]; in data set [2]; in data set [3]; against Cytochrome P450 2E1; in data set [4] (insect cells); in data set [5]) was “Not Active” in each case. For the same compound, the IC50 result in data set [6] and in data set [7] was “Not Active” each time. The Ki result (in data set [1]; in data set [2]; in data set [3]; at Cytochrome P450 2E1; in data set [6]) was “Not Active” each time.
Take `O=c1ncn2nc(Sc3ccc(F)cc3F)ccc2c1-c1c(Cl)cccc1Cl` [NEFLAMAPIMOD]: the IC50 result (in data set [1]; in data set [2]; in data set [3]; against Cytochrome P450 2E1; in data set [4] (insect cells); in data set [5]) was “Not Active” in each case. The IC50 result in data set [6] and in data set [7] was “Not Active” throughout. Moreover, the Ki entry (in data set [1]; in data set [2]; in data set [3]; on Cytochrome P450 2E1; in data set [6]) was “Not Active” each time.
As to `CO[C@H]1/C=C/O[C@@]2(C)Oc3c(C)c(O)c4c(O)c(c(/C=N/N5CCN(C)CC5)c(O)c4c3C2=O)NC(=O)/C(C)=C\C=C\[C@H](C)[C@H](O)[C@@H](C)[C@@H](O)[C@@H](C)[C@H](OC(C)=O)[C@@H]1C` [RIFAMPIN], the IC50 entry (in data set [1]; in data set [2]; in data set [3]; at Cytochrome P450 2E1; in data set [4] (insect cells); in data set [5]) was “Not Active” each time. Further, the IC50 entry in data set [6] and in data set [7] was “Not Active” throughout. In addition, the Ki result (in data set [1]; in data set [2]; in data set [3]; on Cytochrome P450 2E1; in data set [6]) was “Not Active” in each case.
In the case of `C=CCC1(C(C)CCC)C(=O)NC(=O)NC1=O` (stereo not drawn) [SECOBARBITAL], the IC50 entry (in data set [1]; in data set [2]; in data set [3]; on Cytochrome P450 2E1; in data set [4] (insect cells); in data set [5]) was “Not Active” throughout. Also, the IC50 result in data set [6] and in data set [7] was “Not Active” each time. Further, the Ki entry (in data set [1]; in data set [2]; in data set [3]; at Cytochrome P450 2E1; in data set [6]) was “Not Active” throughout.
Consider `C[C@@H]1CN(c2c(F)c(N)c3c(=O)c(C(=O)O)cn(C4CC4)c3c2F)C[C@H](C)N1` [SPARFLOXACIN], for which the IC50 result (in data set [1]; in data set [2]; in data set [3]; against Cytochrome P450 2E1; in data set [4] (insect cells); in data set [5]) was “Not Active” each time. Besides, the IC50 entry in data set [6] and in data set [7] was “Not Active” each time. In addition, the Ki entry (in data set [1]; in data set [2]; in data set [3]; at Cytochrome P450 2E1; in data set [6]) was “Not Active” in each case.
`Cc1noc(NS(=O)(=O)c2ccc(N)cc2)c1C` [SULFISOXAZOLE]: the IC50 entry (in data set [1]; in data set [2]; in data set [3]; on Cytochrome P450 2E1; in data set [4] (insect cells); in data set [5]) was “Not Active” each time. The IC50 result in data set [6] and in data set [7] was “Not Active” each time. In addition, the Ki entry (in data set [1]; in data set [2]; in data set [3]; at Cytochrome P450 2E1; in data set [6]) was “Not Active” throughout.
Consider `CSc1ccc(/C=C2/C(C)=C(CC(=O)O)c3cc(F)ccc32)cc1` [SULINDAC SULFIDE], for which the IC50 entry (in data set [1]; in data set [2]; in data set [3]; against Cytochrome P450 2E1; in data set [4] (insect cells); in data set [5]) was “Not Active” throughout. Further, the IC50 entry in data set [6] and in data set [7] was “Not Active” each time. Also, the Ki entry (in data set [1]; in data set [2]; in data set [3]; on Cytochrome P450 2E1; in data set [6]) was “Not Active” throughout.
As to `Nc1c2c(nc3ccccc13)CCCC2` [TACRINE], the IC50 entry (in data set [1]; in data set [2]; in data set [3]; against Cytochrome P450 2E1; in data set [4] (insect cells); in data set [5]) was “Not Active” in each case. The IC50 entry in data set [6] and in data set [7] was “Not Active” throughout. The Ki entry (in data set [1]; in data set [2]; in data set [3]; on Cytochrome P450 2E1; in data set [6]) was “Not Active” in each case.
Consider `CC(C)N1CCN(c2ccc(OCC3COC(Cn4cncn4)(c4ccc(Cl)cc4Cl)O3)cc2)CC1` (stereo not drawn) [TERCONAZOLE], for which the IC50 result was “Not Active” in data set [1]; “Not Active” in data set [2]; “Not Active” in data set [3]; “Not Active” at Cytochrome P450 2E1; 10.9 µM in data set [4] (read-out: IC50); “Not Active” in data set [5]. The IC50 entry in data set [6] and in data set [7] was “Not Active” throughout. The Ki result (in data set [1]; in data set [2]; in data set [3]; at Cytochrome P450 2E1; in data set [6]) was “Not Active” in each case.
Turning to `Nc1nc2nc[nH]c2c(=S)[nH]1` [THIOGUANINE], the IC50 entry (in data set [1]; in data set [2]; in data set [3]; against Cytochrome P450 2E1; in data set [4] (insect cells); in data set [5]) was “Not Active” throughout. For the same compound, the concentration for half-maximal inhibition (IC50) entry in data set [6] and in data set [7] was “Not Active” throughout. Besides, the Ki entry (in data set [1]; in data set [2]; in data set [3]; on Cytochrome P450 2E1; in data set [6]) was “Not Active” each time.
Regarding `Cc1cccc(N(C)C(=S)Oc2ccc3ccccc3c2)c1` [TOLNAFTATE], the IC50 result (in data set [1]; in data set [2]; in data set [3]; against Cytochrome P450 2E1; in data set [4] (insect cells); in data set [5]) was “Not Active” each time. Besides, the IC50 entry in data set [6] and in data set [7] was “Not Active” throughout. For the same compound, the Ki result (in data set [1]; in data set [2]; in data set [3]; on Cytochrome P450 2E1; in data set [6]) was “Not Active” throughout.
Regarding `NC[C@H]1CC[C@H](C(=O)O)CC1` [TRANEXAMIC ACID], the IC50 result (in data set [1]; in data set [2]; in data set [3]; at Cytochrome P450 2E1; in data set [4] (insect cells); in data set [5]) was “Not Active” each time. Further, the IC50 result in data set [6] and in data set [7] was “Not Active” each time. Moreover, the Ki entry (in data set [1]; in data set [2]; in data set [3]; on Cytochrome P450 2E1; in data set [6]) was “Not Active” in each case.

Usually IC50 stands for the concentration at which inhibition is half-maximal.
